In US20220339243A1, “COMPOSITIONS AND SYNERGISTIC METHODS FOR TREATING INFECTIONS” (BioAegis Therapeutics Inc., priority 2019, published 2022):
In brackets after ≈: the same amount, converted by molar mass.

Tests used:
P. aeruginosa UNC-D [1] = test: Minimum inhibitory concentrations of the UNC-D strain; assay type: cell-based; conditions: for MIC: Pseudomonas aeruginosa, read-out: Minimum inhibitory concentration
Experimental: P. aeruginosa UNC-D is a sputum isolate from a patient with cystic fibrosis. [Lawrenz M B, et al. Pathog. Dis. 73 (2015)]. Bacteria were cultured on trypticase soy agar (TSA) plates and in Lennox broth at 37° C. with shaking of broth cultures. […] Bacteria were prepared for animal challenge studies by culturing bacteria in Lennox broth overnight and washing the bacteria into 1×PBS before diluting to a final concentration based on OD600-based estimates and a final 50 μl delivery dose. Bacterial inocula were confirmed by serial dilution and colony enumeration on TSA plates.

S. pneumoniae isolates = conditions: pediatric population; Cai et al. 2018; cited from earlier work
P. aeruginosa UNC-D [2] = test: Multidrug-resistant P. aeruginosa pneumonia in neutropenic BALB/c mice; assay type: in vivo
[3] = system: Streptococcus pneumoniae type 3; test: Antibiotic-sensitive pneumococcal pneumonia, CD1 mice, delayed treatment; assay type: in vivo; conditions: PEN 100 μg i.m. on days 2 and 3 after infection; FIG. 3B
[4] = system: Streptococcus pneumoniae type 14; test: Antibiotic-resistant pneumococcal pneumonia, CD1 mice, delayed treatment; assay type: in vivo
[5] = system: Streptococcus pneumoniae type 14; test: In vitro bacterial growth, 1 h culture; assay type: cell-based; conditions: PEN 16 μg/ml, pGSN 250 μg/ml, average of 2 replicates
[6] = system: Streptococcus pneumoniae type 14; conditions: cited from earlier work

## C[C@H]1[C@H](NC(=O)/C(=N\OC(C)(C)C(=O)O)c2csc(N)n2)C(=O)N1S(=O)(=O)O [aztreonam]
P. aeruginosa UNC-D [1]
  MIC: 4 µg/mL (≈ 9.19 µM)

## CC(C)(O/N=C(\C(=O)N[C@@H]1C(=O)N2C(C(=O)[O-])=C(C[n+]3ccccc3)CS[C@H]12)c1csc(N)n1)C(=O)O [ceftazidime]
P. aeruginosa UNC-D [1]
  MIC: 32 µg/mL (≈ 58.5 µM)

## CC[C@H]1OC(=O)[C@H](C)[C@@H](O[C@H]2C[C@@](C)(OC)[C@@H](O)[C@H](C)O2)[C@H](C)[C@@H](O[C@@H]2O[C@H](C)C[C@H](N(C)C)[C@H]2O)[C@](C)(O)C[C@@H](C)C(=O)[C@H](C)[C@@H](O)[C@]1(C)O [erythromycin]
S. pneumoniae isolates
  resistance of S. pneumoniae isolates from invasive infections: 96%

## C[C@@H]1O[C@@H]1P(=O)(O)O [fosfomycin]
P. aeruginosa UNC-D [1]
  MIC: 256 µg/mL (≈ 1850 µM)

## C[C@@H](O)[C@H]1C(=O)N2C(C(=O)O)=C(SCCN=CN)C[C@H]12 [imipenem]
P. aeruginosa UNC-D [1]
  MIC: 16 µg/mL (≈ 53.4 µM)

## C[C@@H](O)[C@H]1C(=O)N2C(C(=O)O)=C(S[C@@H]3CN[C@H](C(=O)N(C)C)C3)[C@H](C)[C@H]12 [meropenem]
P. aeruginosa UNC-D [1]
  MIC: 8 µg/mL (≈ 20.9 µM)
P. aeruginosa UNC-D [2]; 1250 mg/kg/day of meropenem
  survival in each of experiments 1 and 2: ≤ 50%
P. aeruginosa UNC-D [2]; 1250 mg/kg/day, two independent studies combined, FIG. 9C, p=0.0049
  mean pathology score (lung, maximum 16): 6.86
P. aeruginosa UNC-D [2]; 26/35 vs 38/46
  near-normal lung histopathology, surviving mice as the denominator: 74.3%
P. aeruginosa UNC-D [2]; 35/64 without and 46/64 with rhu-pGSN
  overall survival, all dosing groups in the 3 experiments combined: 55%
P. aeruginosa UNC-D [2]; all meropenem doses, three experiments, 26/64 vs 38/64, FIG. 10
  overall survival with minor lung injury (pathology scores ≤2): 41%
P. aeruginosa UNC-D [2]; both studies, combined data, pGSN given with meropenem
  spread to spleen / splenic counts: controlled spread from lung to spleen
P. aeruginosa UNC-D [2]; different lot of meropenem, meropenem only group
  survival, third experiment: 75%
P. aeruginosa UNC-D [2]; exploratory post-hoc analysis, 12/32 vs 27/32
  survival with near-normal lungs, control survival rate between 25% and 75%: 37.5%
P. aeruginosa UNC-D [2]; meropenem 1250 mg/kg/day s.c. q8h 5 days, rhu-pGSN 12 mg/day i.p. days -1 to +5, FIG. 7C
  survival for 7 days, two sequential studies combined: 31%
P. aeruginosa UNC-D [2]; two studies with survival advantage, FIG. 11
  time to restoration of body temperature to 95° F. in survivors: 3-5 days post-infection

## CCN1CCN(C(=O)N[C@@H](C(=O)N[C@@H]2C(=O)N3[C@@H]2SC(C)(C)[C@@H]3C(=O)O)c2ccccc2)C(=O)C1=O [piperacillin]
P. aeruginosa UNC-D [1]
  MIC: 16 µg/mL (≈ 30.9 µM)

## NC[C@H]1O[C@H](O[C@H]2[C@H](O)[C@@H](O[C@H]3O[C@H](CO)[C@@H](O)[C@H](N)[C@H]3O)[C@H](N)C[C@@H]2N)[C@H](N)C[C@@H]1O [tobramycin]
P. aeruginosa UNC-D [1]
  MIC: 32 µg/mL (≈ 68.4 µM)

## colistin
P. aeruginosa UNC-D [1]
  Minimum inhibitory concentration: 1 µg/mL

## penicillin
[3]
  survival: 100%
[4]; lung lavage 48 hours after infection, single dose, n=5-6/group
  total lavage neutrophils: 153±74 ×10E4
[4]; treatment from 24 h after infection, daily for 9 days, pGSN 5 mg i.p., PEN 1 mg i.m., FIG. 4A
  survival (final four experiments): no benefit
[5]
  increase in bacterial CFU: 105000 CFU
[6]
  minimum inhibitory concentration (MIC): 8 µg/mL

## trimethoprim-sulfamethoxazole
S. pneumoniae isolates
  resistance of S. pneumoniae isolates from invasive infections: 79%
